Results: ChEMBL document CHEMBL1143424, “Diversity of penA alterations and subtypes in Neisseria gonorrhoeae strains from Sydney, Australia, that are less susceptible to ceftriaxone” (2007)
In brackets after ≈: the same amount, converted by molar mass.

Assays:
Neisseria gonorrhoeae [1] = test: microbe, parasite or virus in culture
Description: Antimicrobial activity against Neisseria gonorrhoeae isolate with PBP2 pattern 10 mutant NG-MAST sequence type 1424 by agar plate dilution method

Neisseria gonorrhoeae [2] = test: microbe, parasite or virus in culture; remark: listed apart in the source
Description: Antimicrobial activity against Neisseria gonorrhoeae isolate with PBP2 pattern 9 mutant NG-MAST sequence type 21 by agar plate dilution method

Neisseria gonorrhoeae [3] = test: microbe, parasite or virus in culture; remark: listed apart in the source
Description: Antimicrobial activity against Neisseria gonorrhoeae isolate with PBP2 pattern 13 mutant NG-MAST sequence type 1624 by agar plate dilution method

Neisseria gonorrhoeae [4] = test: Antimicrobial activity against Neisseria gonorrhoeae isolate with PBP2 pattern 7 mutant NG-MAST sequence type 1422 by agar plate dilution method; assay type: functional
Neisseria gonorrhoeae [5] = test: microbe, parasite or virus in culture; remark: listed apart in the source
Description: Antimicrobial activity against Neisseria gonorrhoeae isolate with PBP2 pattern 10 mutant NG-MAST sequence type 1414 by agar plate dilution method

Neisseria gonorrhoeae [6] = test: microbe, parasite or virus in culture; remark: listed apart in the source
Description: Antimicrobial activity against Neisseria gonorrhoeae isolate with PBP2 pattern 12 mutant NG-MAST sequence type 1703 by agar plate dilution method

Neisseria gonorrhoeae [7] = test: microbe, parasite or virus in culture; remark: listed apart in the source
Description: Antimicrobial activity against Neisseria gonorrhoeae isolate with PBP2 pattern 4 mutant NG-MAST sequence type 69 by agar plate dilution method

Neisseria gonorrhoeae [8] = test: Antimicrobial activity against Neisseria gonorrhoeae isolate with PBP2 pattern 18 mutant NG-MAST sequence type 1621 by agar plate dilution method; assay type: functional
Neisseria gonorrhoeae [9] = test: microbe, parasite or virus in culture; remark: listed apart in the source
Description: Antimicrobial activity against Neisseria gonorrhoeae isolate with PBP2 pattern 11 mutant NG-MAST sequence type 5 by agar plate dilution method

Neisseria gonorrhoeae [10] = test: Antimicrobial activity against Neisseria gonorrhoeae isolate with PBP2 pattern 17 mutant NG-MAST sequence type 1620 by agar plate dilution method; assay type: functional
Neisseria gonorrhoeae [11] = test: microbe, parasite or virus in culture; remark: listed apart in the source
Description: Antimicrobial activity against Neisseria gonorrhoeae isolate with PBP2 pattern 10 mutant NG-MAST sequence type 326 by agar plate dilution method

Neisseria gonorrhoeae [12] = test: microbe, parasite or virus in culture; remark: listed apart in the source
Description: Antimicrobial activity against Neisseria gonorrhoeae isolate bropyst serotype with PBP2 pattern 12 mutant NG-MAST sequence type 604 by agar plate dilution method

Neisseria gonorrhoeae [13] = test: Antimicrobial activity against Neisseria gonorrhoeae isolate with PBP2 pattern 4 mutant NG-MAST sequence type 327 by agar plate dilution method; assay type: functional
Neisseria gonorrhoeae [14] = test: microbe, parasite or virus in culture; remark: listed apart in the source
Description: Antimicrobial activity against Neisseria gonorrhoeae isolate with PBP2 pattern 9 mutant NG-MAST sequence type 5 by agar plate dilution method

Neisseria gonorrhoeae [15] = test: microbe, parasite or virus in culture; remark: listed apart in the source
Description: Antimicrobial activity against Neisseria gonorrhoeae isolate with PBP2 pattern 5 mutant NG-MAST sequence type 1410 by agar plate dilution method

Neisseria gonorrhoeae [16] = test: microbe, parasite or virus in culture; remark: listed apart in the source
Description: Antimicrobial activity against Neisseria gonorrhoeae isolate with PBP2 pattern 5 mutant NG-MAST sequence type 1688 by agar plate dilution method

Neisseria gonorrhoeae [17] = test: microbe, parasite or virus in culture; remark: listed apart in the source
Description: Antimicrobial activity against Neisseria gonorrhoeae isolate with PBP2 pattern 20 mutant NG-MAST sequence type 211 by agar plate dilution method

Neisseria gonorrhoeae [18] = test: microbe, parasite or virus in culture; remark: listed apart in the source
Description: Antimicrobial activity against Neisseria gonorrhoeae isolate with PBP2 pattern 17 mutant NG-MAST sequence type 1342 by agar plate dilution method

Neisseria gonorrhoeae [19] = test: microbe, parasite or virus in culture; remark: listed apart in the source
Description: Antimicrobial activity against Neisseria gonorrhoeae isolate with PBP2 pattern 11 mutant NG-MAST sequence type 1420 by agar plate dilution method

Neisseria gonorrhoeae [20] = test: Antimicrobial activity against Neisseria gonorrhoeae isolate with PBP2 pattern 13 mutant NG-MAST sequence type 1413 by agar plate dilution method; assay type: functional
Neisseria gonorrhoeae [21] = test: microbe, parasite or virus in culture; remark: listed apart in the source
Description: Antimicrobial activity against Neisseria gonorrhoeae isolate with PBP2 pattern 18 mutant NG-MAST sequence type 864 by agar plate dilution method

Neisseria gonorrhoeae [22] = test: Antimicrobial activity against Neisseria gonorrhoeae isolate with PBP2 pattern 13 mutant NG-MAST sequence type 1425 by agar plate dilution method; assay type: functional
Neisseria gonorrhoeae [23] = test: microbe, parasite or virus in culture; remark: listed apart in the source
Description: Antimicrobial activity against Neisseria gonorrhoeae isolate with PBP2 pattern 10 mutant NG-MAST sequence type 925 by agar plate dilution method

Neisseria gonorrhoeae [24] = test: Antimicrobial activity against Neisseria gonorrhoeae isolate with PBP2 pattern 13 mutant NG-MAST sequence type 1148 by agar plate dilution method; assay type: functional
Neisseria gonorrhoeae [25] = test: microbe, parasite or virus in culture; remark: listed apart in the source
Description: Antimicrobial activity against Neisseria gonorrhoeae isolate with PBP2 pattern 13 mutant NG-MAST sequence type 1676 by agar plate dilution method

Neisseria gonorrhoeae [26] = test: microbe, parasite or virus in culture; remark: listed apart in the source
Description: Antimicrobial activity against Neisseria gonorrhoeae isolate with PBP2 pattern 10 mutant NG-MAST sequence type 835 by agar plate dilution method

Neisseria gonorrhoeae [27] = test: microbe, parasite or virus in culture; remark: listed apart in the source
Description: Antimicrobial activity against Neisseria gonorrhoeae isolate with PBP2 pattern 12 mutant NG-MAST sequence type 1426 by agar plate dilution method

Neisseria gonorrhoeae [28] = test: microbe, parasite or virus in culture; remark: listed apart in the source
Description: Antimicrobial activity against Neisseria gonorrhoeae isolate with PBP2 pattern 7 mutant NG-MAST sequence type 1622 by agar plate dilution method

Neisseria gonorrhoeae [29] = test: microbe, parasite or virus in culture; remark: listed apart in the source
Description: Antimicrobial activity against Neisseria gonorrhoeae isolate with PBP2 pattern 12 mutant NG-MAST sequence type 604 by agar plate dilution method

Neisseria gonorrhoeae [30] = test: microbe, parasite or virus in culture; remark: listed apart in the source
Description: Antimicrobial activity against Neisseria gonorrhoeae isolate with PBP2 pattern 13 mutant NG-MAST sequence type 1623 by agar plate dilution method

Neisseria = test: Antimicrobial activity against multiresistant Gonococcus; assay type: functional
Neisseria gonorrhoeae [31] = test: microbe, parasite or virus in culture; remark: listed apart in the source
Description: Antimicrobial activity against Neisseria gonorrhoeae isolate with PBP2 pattern 13 mutant NG-MAST sequence type 1409 by agar plate dilution method

Neisseria gonorrhoeae [32] = test: microbe, parasite or virus in culture; remark: listed apart in the source
Description: Antimicrobial activity against Neisseria gonorrhoeae isolate with PBP2 pattern 10 mutant NG-MAST sequence type 1677 by agar plate dilution method

Neisseria gonorrhoeae [33] = test: microbe, parasite or virus in culture; remark: listed apart in the source
Description: Antimicrobial activity against Neisseria gonorrhoeae isolate with PBP2 pattern 7 mutant NG-MAST sequence type 1619 by agar plate dilution method

CO/N=C(\C(=O)N[C@@H]1C(=O)N2C(C(=O)O)=C(CSc3nc(=O)c(O)nn3C)CS[C@H]12)c1csc(N)n1 [CEFTRIAXONE]
MIC (Neisseria gonorrhoeae [1]): 0.06 µg/mL (≈ 0.108 µM) | MIC (Neisseria gonorrhoeae [2]): 0.06 µg/mL (≈ 0.108 µM) | MIC (Neisseria gonorrhoeae [3]): 0.06 µg/mL (≈ 0.108 µM) | MIC (Neisseria gonorrhoeae [4]): 0.12 µg/mL (≈ 0.216 µM) | MIC (Neisseria gonorrhoeae [5]): 0.06 µg/mL (≈ 0.108 µM) | MIC (Neisseria gonorrhoeae [6]): 0.06 µg/mL (≈ 0.108 µM) | MIC (Neisseria gonorrhoeae [7]): 0.06 µg/mL (≈ 0.108 µM) | MIC (Neisseria gonorrhoeae [8]): 0.12 µg/mL (≈ 0.216 µM) | MIC (Neisseria gonorrhoeae [9]): 0.06 µg/mL (≈ 0.108 µM) | MIC (Neisseria gonorrhoeae [10]): 0.12 µg/mL (≈ 0.216 µM) | MIC (Neisseria gonorrhoeae [11]): 0.06 µg/mL (≈ 0.108 µM) | MIC (Neisseria gonorrhoeae [12]): 0.06 µg/mL (≈ 0.108 µM) | MIC (Neisseria gonorrhoeae [13]): 0.12 µg/mL (≈ 0.216 µM) | MIC (Neisseria gonorrhoeae [14]): 0.06 µg/mL (≈ 0.108 µM) | MIC (Neisseria gonorrhoeae [15]): 0.06 µg/mL (≈ 0.108 µM) | MIC (Neisseria gonorrhoeae [16]): 0.06 µg/mL (≈ 0.108 µM) | MIC (Neisseria gonorrhoeae [17]): 0.06 µg/mL (≈ 0.108 µM) | MIC (Neisseria gonorrhoeae [18]): 0.06 µg/mL (≈ 0.108 µM) | MIC (Neisseria gonorrhoeae [19]): 0.06 µg/mL (≈ 0.108 µM) | MIC (Neisseria gonorrhoeae [20]): 0.12 µg/mL (≈ 0.216 µM) | MIC (Neisseria gonorrhoeae [21]): 0.06 µg/mL (≈ 0.108 µM) | MIC (Neisseria gonorrhoeae [22]): 0.12 µg/mL (≈ 0.216 µM) | MIC (Neisseria gonorrhoeae [23]): 0.06 µg/mL (≈ 0.108 µM) | MIC (Neisseria gonorrhoeae [24]): 0.12 µg/mL (≈ 0.216 µM) | MIC (Neisseria gonorrhoeae [25]): 0.06 µg/mL (≈ 0.108 µM) | MIC (Neisseria gonorrhoeae [26]): 0.06 µg/mL (≈ 0.108 µM) | MIC (Neisseria gonorrhoeae [27]): 0.06 µg/mL (≈ 0.108 µM) | MIC (Neisseria gonorrhoeae [28]): 0.06 µg/mL (≈ 0.108 µM) | MIC (Neisseria gonorrhoeae [29]): 0.06 µg/mL (≈ 0.108 µM) | MIC (Neisseria gonorrhoeae [30]): 0.06 µg/mL (≈ 0.108 µM) | MIC (Neisseria): 0.5 µg/mL (≈ 0.902 µM) | MIC (Neisseria gonorrhoeae [31]): 0.06 µg/mL (≈ 0.108 µM) | MIC (Neisseria gonorrhoeae [32]): 0.06 µg/mL (≈ 0.108 µM) | MIC (Neisseria gonorrhoeae [33]): 0.06 µg/mL (≈ 0.108 µM)
